Values after ≈ are worked out from the molar mass of the structure shown. Where a SMILES comes first, the peptide text is derived from it.
Key:
MDRST 8007 = test: Minimal inhibitory concentration (MIC), single agent; type: cell-based, Salmonella typhimurium; conditions: agent alone
How it was run: (§1)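 MIC read-out = lowest peptide level with no bacterial proliferation. Strains diluted in MH medium to 2×10^6 CFU; peptide twofold serial dilutions in MH added 1:1 in microtiter wells.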

S. epidermidis = test: microbe, parasite or virus in culture; type: cell-based, Staphylococcus epidermidis
How it was run: as §1

MDRAB 12035 = test: MIC of antimicrobial peptide during combined treatment with antibiotic; type: cell-based, Acinetobacter baumannii
How it was run: (§2)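 Broth microdilution in MH medium; strains were diluted to 2×10^6 CFU per ml before plating. Peptide was serially diluted stepwise at 2:1 starting from its MIC, and MH-diluted antibiotic was then added to determine MIC. The reversed arrangement was also tested.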

A. baumannii [1] = test: as above; type: cell-based, Acinetobacter baumannii
How it was run: as §2

E. coli = test: MIC of antibiotic during combined treatment with antimicrobial peptide; type: cell-based, Escherichia coli; conditions: for Antibiotic MIC, Erythromycin / Antibiotic MIC, Linezolid / Antibiotic MIC, Vancomycin: E. coli
How it was run: (§3)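 Using MH broth, we determined combination MICs by titrating the antibiotic into wells and then repeating under the reverse dilution scheme.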

A. baumannii [2] = test: as above; type: cell-based, Acinetobacter baumannii
How it was run: as §3

[3] = erythromycin 4 μg/ml (Conc./MIC 1/8)
[4] = erythromycin 8 μg/ml (Conc./MIC 1/4)
[5] = erythromycin 16 μg/ml (Conc./MIC 1/2)
[6] = erythromycin 32 μg/ml (Conc./MIC 1)
[7] = vancomycin 512 μg/ml (Conc./MIC 1/2)
[8] = vancomycin 1024 μg/ml (Conc./MIC 1)
[9] = A. baumannii, combined with peptide at 1 μg/ml

CC[C@H](C)[C@H](NC(=O)[C@H](CCCCN)NC(=O)[C@H](Cc1c[nH]c2ccccc12)NC(=O)[C@@H](N)CCCNC(=N)N)C(=O)N[C@@H](Cc1ccccc1)C(=O)N[C@@H](CCCCN)C(=O)N[C@@H](CCCCN)C(=O)N[C@H](C(=O)N1CCC[C@H]1C(=O)N[C@@H](CCCCN)C(=O)N[C@@H](CC(C)C)C(=O)N[C@@H](CC(C)C)C(=O)N[C@@H](Cc1c[nH]cn1)C(=O)N[C@@H](CO)C(=O)N[C@@H](Cc1ccccc1)C(=O)N[C@@H](CCCCN)C(=O)N[C@@H](CCCCN)C(=O)N[C@@H](Cc1ccccc1)C(N)=O)[C@@H](C)CC [PapMA-7, RWK IFK KIP KLL HSF KKF-NH2] (H-RWKIFKKIPKLLHSFKKF-NH2; N-terminus assumed)
Minimal inhibitory concentration MIC (MDRST 8007): 32 µg/mL (≈ 13.7 µM)
Minimal inhibitory concentration MIC (S. epidermidis): >128 µg/mL
Peptide MIC during treatment with erythromycin (MDRAB 12035; [3]): 2 µg/mL
Peptide MIC during treatment with erythromycin (MDRAB 12035; [4]): 1 µg/mL
Peptide MIC during treatment with erythromycin (MDRAB 12035; [5]): 1 µg/mL
Peptide MIC during treatment with erythromycin (MDRAB 12035; [6]): 0 µg/mL
Peptide MIC during treatment with linezolid (MDRAB 12035; linezolid 64 μg/ml (Conc./MIC 1/8)): 1 µg/mL
Peptide MIC during treatment with linezolid (MDRAB 12035; linezolid 512 μg/ml (Conc./MIC 1)): 0 µg/mL
Peptide MIC during treatment with linezolid (MDRAB 12035; linezolid […] (Conc./MIC 1/2)): 1 µg/mL
Peptide MIC during treatment with linezolid (MDRAB 12035; linezolid […] (Conc./MIC 1/4)): 1 µg/mL
Peptide MIC during treatment with vancomycin (MDRAB 12035; [7]): 0.5 µg/mL
Peptide MIC during treatment with vancomycin (MDRAB 12035; [8]): 0.25 µg/mL
Peptide MIC during treatment with vancomycin (MDRAB 12035; vancomycin […] (Conc./MIC 1/4)): 1 µg/mL
Peptide MIC during treatment with vancomycin (MDRAB 12035; vancomycin […] (Conc./MIC 1/8)): 1 µg/mL
Peptide MIC during treatment with antibiotic (A. baumannii [1]; [3]): 2 µg/mL
Peptide MIC during treatment with antibiotic (A. baumannii [1]; [4]): 2 µg/mL
Peptide MIC during treatment with antibiotic (A. baumannii [1]; [5]): 1 µg/mL
Peptide MIC during treatment with antibiotic (A. baumannii [1]; [6]): 0 µg/mL
Peptide MIC during treatment with antibiotic (A. baumannii [1]; linezolid 32 μg/ml (Conc./MIC 1/8)): 2 µg/mL
Peptide MIC during treatment with antibiotic (A. baumannii [1]; linezolid 64 μg/ml (Conc./MIC 1/4)): 2 µg/mL
Peptide MIC during treatment with antibiotic (A. baumannii [1]; linezolid […] (Conc./MIC 1)): 0 µg/mL
Peptide MIC during treatment with antibiotic (A. baumannii [1]; linezolid […] (Conc./MIC 1/2)): 1 µg/mL
Peptide MIC during treatment with antibiotic (A. baumannii [1]; [7]): 0.25 µg/mL
Peptide MIC during treatment with antibiotic (A. baumannii [1]; [8]): 0 µg/mL
Peptide MIC during treatment with antibiotic (A. baumannii [1]; vancomycin […] (Conc./MIC 1/4)): 0.25 µg/mL
Peptide MIC during treatment with antibiotic (A. baumannii [1]; vancomycin […] (Conc./MIC 1/8)): 2 µg/mL
Synergistic effect of antibacterial activity with existing antibiotics compared with PapMA-1 (E. coli; E. coli and MDREC1229): higher level than the PapMA-1 peptide
Antibiotic MIC, Erythromycin (E. coli; erythromycin combined with peptide at 1 μg/ml): 64 µg/mL
Antibiotic MIC, Erythromycin (E. coli; erythromycin combined with peptide at 2 μg/ml): 32 µg/mL
Antibiotic MIC, Erythromycin (E. coli; erythromycin combined with peptide at 4 μg/ml): 4 µg/mL
Antibiotic MIC, Erythromycin (E. coli; erythromycin combined with peptide at 6 μg/ml): 2 µg/mL
Antibiotic MIC, Erythromycin (E. coli; erythromycin combined with peptide at 8 μg/ml): 0.25 µg/mL
Antibiotic MIC, Erythromycin (E. coli; erythromycin combined with peptide at 16 μg/ml): 0.125 µg/mL
Antibiotic MIC, Erythromycin (E. coli; erythromycin combined with peptide at 32 μg/ml): 0 µg/mL
Antibiotic MIC, Erythromycin (E. coli; erythromycin combined with peptide at 64 μg/ml): 0 µg/mL
Antibiotic MIC, Linezolid (E. coli; linezolid combined with peptide at 1 μg/ml): >128 µg/mL
Antibiotic MIC, Linezolid (E. coli; linezolid combined with peptide at 2 μg/ml): 128 µg/mL
Antibiotic MIC, Linezolid (E. coli; linezolid combined with peptide at 4 μg/ml): 8 µg/mL
Antibiotic MIC, Linezolid (E. coli; linezolid combined with peptide at 6 μg/ml): 4 µg/mL
Antibiotic MIC, Linezolid (E. coli; linezolid combined with peptide at 8 μg/ml): 4 µg/mL
Antibiotic MIC, Linezolid (E. coli; linezolid combined with peptide at 16 μg/ml): 1 µg/mL
Antibiotic MIC, Linezolid (E. coli; linezolid combined with peptide at 32 μg/ml): 0 µg/mL
Antibiotic MIC, Linezolid (E. coli; linezolid combined with peptide at 64 μg/ml): 0 µg/mL
Antibiotic MIC, Vancomycin (E. coli; vancomycin combined with peptide at 1 μg/ml): >128 µg/mL
Antibiotic MIC, Vancomycin (E. coli; vancomycin combined with peptide at 2 μg/ml): 128 µg/mL
Antibiotic MIC, Vancomycin (E. coli; vancomycin combined with peptide at 4 μg/ml): 32 µg/mL
Antibiotic MIC, Vancomycin (E. coli; vancomycin combined with peptide at 6 μg/ml): 8 µg/mL
Antibiotic MIC, Vancomycin (E. coli; vancomycin combined with peptide at 8 μg/ml): 4 µg/mL
Antibiotic MIC, Vancomycin (E. coli; vancomycin combined with peptide at 16 μg/ml): 1 µg/mL
Antibiotic MIC, Vancomycin (E. coli; vancomycin combined with peptide at 32 μg/ml): 0 µg/mL
Antibiotic MIC, Vancomycin (E. coli; vancomycin combined with peptide at 64 μg/ml): 0 µg/mL
Synergistic effect of antibacterial activity with existing antibiotics compared with PapMA-1 (A. baumannii [2]; A. baumannii and MDRAB 12035): higher level than the PapMA-1 peptide
Antibiotic MIC, Erythromycin (A. baumannii [2]; [9]): 16 µg/mL
Antibiotic MIC, Linezolid (A. baumannii [2]; [9]): 128 µg/mL
Antibiotic MIC, Vancomycin (A. baumannii [2]; [9]): >128 µg/mL
